In experiment [1] the test system is human pleural mesothelioma cells NCI-H226. In words: Cell anti-proliferation experiment (CCK8), NCI-H226. Format: cell-based. The method in brief:
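Viability was measured by CCK-8 (3 h, A450) after 3-day treatment with 0.15–333.33 nM compound in 0.1% DMSO medium. Curve-fitted IC50 was based on viability normalised to no-drug and cell-free controls.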

In experiment [2] the test system is YAP-TEAD. In words: YAP-TEAD inhibitor activity by Nano luciferase method (8xGTiiC-nLuc reporter in 293T cells). Format: cell-based. The conditions noted are these: Homo sapiens, HEK-293T, 48 hours incubation, read-out: Nano-luciferase detection (IC50). The method in brief:
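IC50 derived from nLuc reporter signal normalised to 0 nM wells, after 48 h, 37 °C compound exposure (1:3.16 series, highest 10,000 nM). Cells: 293T transfected with 8xGTiiC-nLuc/CMV-fLuc plasmid, plated at 2000 per well.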

The structures appear in SMILES notation.

The term IC50 denotes the midpoint of a concentration-inhibition curve. On to `Cn1cc2c(=O)n(-c3ccc(C(F)(F)F)cc3)c3ccc(NC(=O)C(F)(F)F)cc3c2n1` [Example T-174], for which the IC50 in experiment [1] and in experiment [2] was ≤ 1 µM in each case.

As for `CC(=O)Nc1ccc2c(c1)c1nn(C)cc1c(=O)n2-c1ccc(C(F)(F)F)cc1` [Example T-175], the IC50 in experiment [1] and in experiment [2] was ≤ 1 µM each time.

For the compound `CN(C)C/C=C/C(=O)Nc1ccc2c(c1)c1nn(C)cc1c(=O)n2-c1ccc(C(F)(F)F)cc1` [Example T-176], the IC50 in experiment [1] and in experiment [2] was ≤ 1 µM throughout.

Take `Cn1cc2c(=O)n(-c3ccc(C(F)(F)F)cc3)c3ccc(NC(=O)/C=C/CN4CCCCC4)cc3c2n1` [Example T-177]: the IC50 in experiment [1] and in experiment [2] was ≤ 1 µM throughout.

As to `Cn1cc2c(=O)n(-c3ccc(C(F)(F)F)cc3)c3ccc(NC(=O)/C=C/CN4CCOCC4)cc3c2n1` [Example T-178], the IC50 in experiment [1] and in experiment [2] was ≤ 1 µM in each case.

Consider `Cn1cc2c(=O)n(-c3ccc(C(F)(F)F)cc3)c3ccc(NC(=O)/C=C/CN4CCCC4)cc3c2n1` [Example T-179], for which the IC50 in experiment [1] and in experiment [2] was ≤ 1 µM in each case.

On to `COC(=O)Nc1ccc2c(c1)c1nn(C)cc1c(=O)n2-c1ccc(C(F)(F)F)cc1` [Example T-180], for which the IC50 in experiment [1] and in experiment [2] was ≤ 1 µM in each case.

For the compound `CNC(=O)Nc1ccc2c(c1)c1nn(C)cc1c(=O)n2-c1ccc(C(F)(F)F)cc1` [Example T-181], the IC50 in experiment [1] and in experiment [2] was ≤ 1 µM each time.

As to `CN(C)C(=O)Nc1ccc2c(c1)c1nn(C)cc1c(=O)n2-c1ccc(C(F)(F)F)cc1` [Example T-182], the IC50 in experiment [1] and in experiment [2] was ≤ 1 µM in each case.

Turning to `Cn1cc2c(=O)n(-c3ccc(C(F)(F)F)cc3)c3ccc(NC(N)=O)cc3c2n1` [Example T-183], the IC50 in experiment [1] and in experiment [2] was ≤ 1 µM in each case.

Consider `Cn1cc2c(=O)n(-c3ccc(C(F)(F)F)cc3)c3ccc(NC(=O)N4CCCC4)cc3c2n1` [Example T-184], for which the IC50 in experiment [1] and in experiment [2] was ≤ 1 µM throughout.

`Cn1cc2c(=O)n(-c3ccc(C(F)(F)F)cc3)c3ccc(NC(=O)N4CCCCC4)cc3c2n1` [Example T-185]: the IC50 in experiment [1] and in experiment [2] was ≤ 1 µM in each case.

In the case of `Cn1cc2c(=O)n(-c3ccc(C(F)(F)F)cc3)c3ccc(NS(=O)(=O)c4ccccc4)cc3c2n1` [Example T-186], the IC50 in experiment [1] and in experiment [2] was ≤ 1 µM in each case.

As for `Cn1cc2c(=O)n(-c3ccc(C(F)(F)F)cc3)c3ccc(NS(=O)(=O)c4ccc(F)cc4)cc3c2n1` [Example T-187], the IC50 in experiment [1] and in experiment [2] was ≤ 1 µM each time.

With `CCS(=O)(=O)Nc1ccc2c(c1)c1nn(C)cc1c(=O)n2-c1ccc(C(F)(F)F)cc1` [Example T-188], the IC50 in experiment [1] and in experiment [2] was ≤ 1 µM in each case.

For `Cc1ccc(S(=O)(=O)Nc2ccc3c(c2)c2nn(C)cc2c(=O)n3-c2ccc(C(F)(F)F)cc2)cc1` [Example T-189], the IC50 in experiment [1] and in experiment [2] was ≤ 1 µM in each case.

For `Cn1cc2c(=O)n(-c3ccc(C(F)(F)F)cc3)c3ccc(NS(C)(=O)=O)cc3c2n1` [Example T-190], the IC50 in experiment [1] and in experiment [2] was ≤ 1 µM throughout.

As for `Cn1cc2c(=O)n(-c3ccc(C(F)(F)F)cc3)c3ccc(NS(=O)(=O)C(F)(F)F)cc3c2n1` [Example T-191], the IC50 in experiment [1] and in experiment [2] was ≤ 1 µM in each case.

On to `COCCOC(=O)Nc1ccc2c(c1)c1nn(C)cc1c(=O)n2-c1ccc(C(F)(F)F)cc1` [Example T-192], for which the IC50 in experiment [1] and in experiment [2] was ≤ 1 µM each time.

`CCOC(=O)Nc1ccc2c(c1)c1nn(C)cc1c(=O)n2-c1ccc(C(F)(F)F)cc1` [Example T-193]: the IC50 in experiment [1] and in experiment [2] was ≤ 1 µM each time.

In the case of `CC(C)OC(=O)Nc1ccc2c(c1)c1nn(C)cc1c(=O)n2-c1ccc(C(F)(F)F)cc1` [Example T-194], the IC50 in experiment [1] and in experiment [2] was ≤ 1 µM throughout.

In the case of `CNS(=O)(=O)c1ccc2c(c1)c1c(cnn1C)c(=O)n2-c1ccc(C(F)(F)F)cc1` [Example T-195], the IC50 in experiment [1] and in experiment [2] was 1 to 5 µM in each case.

Consider `CNS(=O)(=O)c1ccc2c(c1)c1ccccc1c(=O)n2-c1ccc(C(F)(F)F)cc1` [Example T-199], for which the IC50 in experiment [1] and in experiment [2] was 1 to 5 µM in each case.

As for `C[C@H](NC(=O)c1ccc2c(c1)c1nn(C)cc1c(=O)n2-c1ccc(S(F)(F)(F)(F)F)cc1)c1ccccn1` [Example T-227], the IC50 in experiment [1] and in experiment [2] was ≤ 1 µM throughout.

Take `C[C@H](NC(=O)c1ccc2c(c1)c1nn(C)cc1c(=O)n2-c1ccc(OC(F)(F)F)cc1)c1ccccn1` [Example T-229]: the IC50 in experiment [1] and in experiment [2] was ≤ 1 µM in each case.

Take `C[C@H](NC(=O)c1ccc2c(c1)c1nn(C)cc1c(=O)n2-c1ccc(OC(F)(F)F)cc1)c1ccccc1` [Example T-230]: the IC50 in experiment [1] and in experiment [2] was ≤ 1 µM in each case.

As for `C=CC(=O)Nc1ccc2c(c1)c1nn(C)cc1c(=O)n2-c1ccc(S(F)(F)(F)(F)F)cc1` [Example T-231], the IC50 in experiment [1] and in experiment [2] was ≤ 1 µM in each case.

As for `C=CC(=O)Nc1ccc2c(c1)c1nn(C)cc1c(=O)n2-c1ccc(OC(F)(F)F)cc1` [Example T-232], the IC50 in experiment [1] and in experiment [2] was ≤ 1 µM throughout.

As to `CC(C)/C=C/C(=O)Nc1ccc2c(c1)c1nn(C)cc1c(=O)n2-c1ccc(C(F)(F)F)cc1` [Example T-233], the IC50 in experiment [1] and in experiment [2] was ≤ 1 µM each time.

For the compound `CC/C=C/C(=O)Nc1ccc2c(c1)c1nn(C)cc1c(=O)n2-c1ccc(C(F)(F)F)cc1` [Example T-234], the IC50 in experiment [1] and in experiment [2] was ≤ 1 µM in each case.

`C=C(F)C(=O)Nc1ccc2c(c1)c1nn(C)cc1c(=O)n2-c1ccc(C(F)(F)F)cc1` [Example T-235]: the IC50 in experiment [1] and in experiment [2] was ≤ 1 µM in each case.

In the case of `C=C(C)C(=O)Nc1ccc2c(c1)c1nn(C)cc1c(=O)n2-c1ccc(C(F)(F)F)cc1` [Example T-236], the IC50 in experiment [1] and in experiment [2] was ≤ 1 µM in each case.

Regarding `C#CC(=O)Nc1ccc2c(c1)c1nn(C)cc1c(=O)n2-c1ccc(C(F)(F)F)cc1` [Example T-237], the IC50 in experiment [1] and in experiment [2] was ≤ 1 µM in each case.

For the compound `CC#CC(=O)Nc1ccc2c(c1)c1nn(C)cc1c(=O)n2-c1ccc(C(F)(F)F)cc1` [Example T-238], the IC50 in experiment [1] and in experiment [2] was ≤ 1 µM in each case.

Consider `C/C=C/C(=O)Nc1ccc2c(c1)c1nn(C)cc1c(=O)n2-c1ccc(C(F)(F)F)cc1` [Example T-239], for which the IC50 in experiment [1] and in experiment [2] was ≤ 1 µM in each case.

`C=CC(=O)Nc1cnc2c(c1)c1cscc1c(=O)n2-c1ccc(C(F)(F)F)cc1` [Example T-240]: the IC50 in experiment [1] and in experiment [2] was ≤ 1 µM each time.

For the compound `C=CC(=O)Nc1cnc2c(c1)c1nn(C)cc1c(=O)n2-c1ccc(C(F)(F)F)cc1` [Example T-241], the IC50 in experiment [1] and in experiment [2] was ≤ 1 µM in each case.

For the compound `C=CC(=O)Nc1cnc2c(c1)c1ccccc1c(=O)n2-c1ccc(C(F)(F)F)cc1` [Example T-242], the IC50 in experiment [1] and in experiment [2] was ≤ 1 µM each time.

The values above are taken from patent publication US20250154105A1, “POLYCYCLIC COMPOUND AND USE THEREOF” (TYK MEDICINES, INC., priority 2021, published 2025).
